In patent publication US20090246240A1, “DRY BACTERICIDAL NONWOVEN WIPE” (priority 2008, published 2009):
Where two headings read alike, the source gives them in different places.

Legend:
[1] = tested on: methicillin resistant Staphylococcus aureus (MRSA); experiment: AATCC Test Method 100: Assessment of Antibacterial Finishes on Textile Materials (MRSA); format: cell-based
Text: (§1) A dry bactericidal wipe comprising was formed using 100% 1.5 denier Visocel® rayon fibers 38-mm in length, available from SNIACE of Torrelavega, Cantabria, Spain. A binder composition containing 5% of an acrylic binder, ST 954, available from Rohm and Hass Chemicals LLC of Charlotte, N.C., U.S.A. and 95% water was applied first using foam application at the first application at a level of about 10.6 grams per square yard, heating using steam or oil heated cans for about 45 seconds at a temperature of about 275° Fahrenheit. A second application of the binder/bactericidal composition containing 5% of the ST 954 acrylic binder, 1% tetradecylbenzyldimethyl ammonium chloride, and 94% water was applied by padding at a level of about 1.2 grams per square yard. The web is then heated in the same manner as above. The wipe has thickness of about 11 mils measured according to ASTM D 1777 and a basis weight of 37.8 g/yd^2, measured according to ASTM D 3776. A sample was prepared for bactericidal testing according to AATCC Test Method 100: Assessment of Antibacterial Finishes on Textile Materials.
(§2) Another aspect of the present invention is the discovery of a new use for a certain bactericidal agent, namely the tetradecylbenzyldimethyl ammonium chloride. As will be appreciated by those skilled in the art, there are various methods to assess the effectiveness of a bactericidal agent. The discovery here is that this particular bactericidal agent provides a greater than 90%, preferably greater than 95%, and more preferably greater than 99% reduction in bacterium, including methicillin resistant Staphylococcus aureus (MRSA or Mursa), Staphylococcus aureus, Klebsiella pneumoniae, or combinations thereof. One method for determining the reduction of such organisms is American Association of Textile Chemists and Colorists (AATCC) Test Method 100, using American Type Culture Collection (ATCC) reference organisms ATCC 33591, methicillin resistant Staphylococcus aureus (MRSA), ATCC 6538, Staphylococcus aureus, and ATCC 4352, Klebsiela pneumoniae. […]

Staphylococcus aureus = experiment: AATCC Test Method 100: Assessment of Antibacterial Finishes on Textile Materials (Staphylococcus aureus); format: cell-based, ATCC 6538
Text: as §1, §2

Klebsiella pneumoniae = experiment: AATCC Test Method 100: Assessment of Antibacterial Finishes on Textile Materials (Klebsiella pneumoniae); format: cell-based, ATCC 4352
Text: as §1, §2

[2] = listed as tetradecyl benzyl dimethyl ammonium chloride
[3] = listed as tetradecyldimethylbenzyl ammonium chloride

CCCCCCCCCCCCCC[N+](C)(C)Cc1ccccc1.[Cl-] [tetradecylbenzyldimethyl ammonium chloride]
greater than 90%: reduction in methicillin resistant Staphylococcus aureus (MRSA) [1] | reduction in methicillin resistant Staphylococcus aureus (MRSA) [1, 2] | reduction in Staphylococcus aureus bacterium (Staphylococcus aureus) | reduction in Staphylococcus aureus bacterium (Staphylococcus aureus; [2]) | reduction in the Klebsiella pneumoniae bacterium (Klebsiella pneumoniae) | reduction in the Klebsiella pneumoniae bacterium (Klebsiella pneumoniae; [2])
more than 99%: reduction in methicillin resistant Staphylococcus aureus (MRSA) [1, 3] | reduction in Staphylococcus aureus bacterium (Staphylococcus aureus; [3]) | reduction in the Klebsiella pneumoniae bacterium (Klebsiella pneumoniae; [3])
